These results are taken from patent US11845752B2, “Substituted imidazo[1,5-a]pyrazines for the treatment of hepatitis B” (ALIGOS THERAPEUTICS, INC., priority 2020, dated 2023).

Some results are limits rather than exact numbers.

For the first assay, the system named is HBV. Kind of assay: HBV-DNA antiviral assay using HepG2.117 cells (intracellular HBV DNA by qPCR). Type of assay: cell-based, HBV genotype D. Conditions: HBV DNA inhibition, 3 days incubation, read-out: EC50. In a few lines:
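HepG2.117 cells (stably integrated genotype D HBV, Tet-off) seeded without doxycycline to induce pgRNA, then treated next day with 9 concentrations (4-fold dilutions, 2% DMSO) for 3 days at 37 °C. Intracellular HBV DNA quantified by qPCR against standard curve, viability by ATP content; inhibition relative to DMSO control, EC50/EC90/CC50 by non-linear regression.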
On the technique in general: Quantitative PCR measures a nucleic acid by following its amplification.
The EC50 is the concentration giving half of the maximal effect. For `Cc1nnc(-c2cccc(F)c2CNC(=O)c2c3n(c(=O)n2-c2ccc(OC4CC4)cc2)CC(C)N(C(=O)c2ccc(Br)c(Cl)c2)C3)o1` (single isomer, unassigned) [Compound 45b], the EC50 fell in the range of 50 to 500 nM. On the same count and under the same terms, for `C#Cc1cc(C(=O)N2Cc3c(C(=O)NCc4ccccc4-c4ccncn4)n(-c4ccc(OC5CC5)cc4)c(=O)n3CC2C)ccc1Br` (single isomer, unassigned) [Compound 20b] the value was 50 to 500 nM; for `CC1Cn2c(c(C(=O)NCc3ccccc3-c3ncccn3)n(-c3ccc(OC[C@@H](O)C(F)(F)F)cc3)c2=O)CN1C(=O)c1ccc(Br)c(C(F)(F)F)c1` (stereo in doubt) [Compound 71b, (6S*)-7-[4-bromo-3-(trifluoromethyl)benzoyl]-6-methyl-3-oxo-N-{[2-(pyrimidin-2-yl)phenyl]methyl}-2-{4-[(2R)-3,3,3-trifluoro-2-hydroxypropoxy]phenyl}-5H,6H,8H-imidazo[1,5-a]pyrazine-1-carboxamide], 50 to 500 nM. Still for that read-out and setting: then `CC1Cn2c(c(C(=O)NCc3ccccc3-c3ccncn3)n(-c3ccc(OC[C@@H](C)O)cc3)c2=O)CN1C(=O)c1ccc(Br)c(C(F)(F)F)c1` (stereo in doubt) [Compound 55b, (6S*)-7-[4-bromo-3-(trifluoromethyl)benzoyl]-2-{4-[(2R)-2-hydroxypropoxy]phenyl}-6-methyl-3-oxo-N-{[2-(pyrimidin-4-yl)phenyl]methyl}-5H,6H,8H-imidazo[1,5-a]pyrazine-1-carboxamide], with under 50 nM. Still for that read-out and setting: then `CC1Cn2c(c(C(=O)NCc3ccccc3-c3ccnc(N)n3)n(-c3ccc(OC4CC4)cc3)c2=O)CN1C(=O)c1ccc(Br)c(Cl)c1` (single isomer, unassigned) [Compound 11b, N-[[2-(2-aminopyrimidin-4-yl)phenyl]methyl]-7-(4-bromo-3-chloro-benzoyl)-2-[4-(cyclopropoxy)phenyl]-6-methyl-3-oxo-6,8-dihydro-5H-imidazo[1,5-a]pyrazine-1-carboxamide], with 50 to 500 nM; and `CC1Cn2c(c(C(=O)NCc3c(F)cccc3-n3cccn3)n(-c3ccc(OC4CC4)cc3)c2=O)CN1C(=O)c1ccc(Br)c(C(F)(F)F)c1` (single isomer, unassigned) [Compound 25b], with under 50 nM.

The assay is the same for the next values; noted with them: Hepatitis B virus, HepG2.117, 72 h, HBV DNA inhibition, 3 days incubation, read-out: EC50.
`C[C@H](O)COc1ccc(-n2c(C(=O)NCc3ccccc3-c3ncccn3)c3n(c2=O)C[C@H](C)N(C(=O)c2ccc(Br)c(C(F)(F)F)c2)C3)cc1` (racemic) [Compound 65b, (6SR)-7-[4-bromo-3-(trifluoromethyl)benzoyl]-2-[4-[(25)-2-hydroxypropoxy]phenyl]-6-methyl-3-oxo-N-[(2-pyrimidin-2-ylphenyl)methyl]-6,8-dihydro-5H-imidazo[1,5-a]pyrazine-1-carboxamide]: the EC50 was 50 to 500 nM.

In the case of `CC1Cn2c(c(C(=O)NCc3ccccc3-c3ccncn3)n(-c3ccc(N4CCO[C@H](C)C4)cc3)c2=O)CN1C(=O)c1ccc(Br)c(Cl)c1` (stereo in doubt) [Compound 15a, (6R*)-7-(4-bromo-3-chloro-benzoyl)-6-methyl-2-[4-[(2R)-2-methylmorpholin-4-yl]phenyl]-3-oxo-N-[(2-pyrimidin-4-ylphenyl)methyl]-6,8-dihydro-5H-imidazo[1,5-a]pyrazine-1-carboxamide], the EC50 was in the range of 50 to 500 nM. The same measure, in the same setting: for `C[C@@H]1Cn2c(c(C(=O)NCc3ccccc3-c3cccnn3)n(-c3ccc(OC[C@@H](O)C(F)(F)F)cc3)c2=O)CN1C(=O)c1ccc(Br)c(C(F)(F)F)c1` (mixture of isomers) [Compound 66a, (6RS)-7-[4-bromo-3-(trifluoromethyl)benzoyl]-6-methyl-3-oxo-N-[(2-pyridazin-3-ylphenyl)methyl]-2-[4-[(2R)-3,3,3-trifluoro-2-hydroxy-propoxy]phenyl]-6,8-dihydro-5H-imidazo[1,5-a]pyrazine-1-carboxamide] the value was 50 to 500 nM; for `CNc1ccnc(-c2ccccc2CNC(=O)c2c3n(c(=O)n2-c2ccc(OC4CC4)cc2)C[C@H](C)N(C(=O)c2ccc(Br)c(Cl)c2)C3)n1` (racemic) [Compound 26b], under 50 nM; for `CC1Cn2c(c(C(=O)NCc3ccccc3-c3ncccn3)n(-c3ccc4nn(C[C@@H](O)C(F)(F)F)cc4c3)c2=O)CN1C(=O)c1ccc(Br)c(C(F)(F)F)c1` (single isomer, unassigned) [Compound 105a], under 50 nM. As for `C[C@H](O)COc1ccc(-n2c(C(=O)NCc3ccccc3-c3ccccn3)c3n(c2=O)C[C@@H](C)N(C(=O)c2ccc(Br)c(C(F)(F)F)c2)C3)cc1` (mixture of isomers) [Compound 61a, (6RS)-7-[4-bromo-3-(trifluoromethyl)benzoyl]-2-[4-[(2S)-2-hydroxypropoxy]phenyl]-6-methyl-3-oxo-N-[[2-(2-pyridyl)phenyl]methyl]-6,8-dihydro-5H-imidazo[1,5-a]pyrazine-1-carboxamide], the EC50 was under 50 nM. Same read-out and setting: then `CC1Cn2c(c(C(=O)NCc3ccccc3-c3cccnn3)n(-c3ccc(OC4CC4)cc3)c2=O)CN1C(=O)c1ccc(Br)c(Cl)c1` (single isomer, unassigned) [Compound 7a, 7-(4-bromo-3-chloro-benzoyl)-2-[4-(cyclopropoxy)phenyl]-6-methyl-3-oxo-N-[(2-pyridazin-3-ylphenyl)methyl]-6,8-dihydro-5H-imidazo[1,5-a]pyrazine-1-carboxamide], with 50 to 500 nM. For the compound `CC1Cn2c(c(C(=O)NCc3ccccc3-c3cccc(N)n3)n(-c3ccc(OC4CC4)cc3)c2=O)CN1C(=O)c1ccc(Br)c(C(F)(F)F)c1` (single isomer, unassigned) [Compound 27a], the EC50 is under 50 nM. In the case of `O=C(NCc1ccccc1-c1ncccn1)c1c2n(c(=O)n1-c1ccc(OC3CC3)cc1)CC(CN1CCOCC1)N(C(=O)c1ccc(Br)c(C(F)(F)F)c1)C2` (single isomer, unassigned) [Compound 132a], the EC50 lay in the range of 500 to 5000 nM. Consider `Cc1nc2cc(-n3c(C(=O)NCc4ccccc4-c4ccncn4)c4n(c3=O)CC(C)N(C(=O)c3ccc(Br)c(Cl)c3)C4)ccc2o1` (single isomer, unassigned) [Compound 46a], for which the EC50 was 50 to 500 nM. As for `CC1Cn2c(c(C(=O)NCc3ccccc3-c3ccn(CC(F)(F)F)n3)n(-c3ccc(N4CC5(CN(C)C5)C4)cc3)c2=O)CN1C(=O)c1ccc(Br)c(C(F)(F)F)c1` (single isomer, unassigned) [Compound 99a], the EC50 lay within 50 to 500 nM. For the compound `Cc1nnc(-c2cccc(F)c2CNC(=O)c2c3n(c(=O)n2-c2ccc(OC4CC4)cc2)CC(C)N(C(=O)c2ccc(Br)c(C(F)(F)F)c2)C3)o1` (single isomer, unassigned) [Compound 33a], the EC50 fell in the range of 50 to 500 nM.

In the case of `CC1Cn2c(c(C(=O)NCc3ccccc3-c3cc[nH]n3)n(-c3ccc(OC4CC4)cc3)c2=O)CN1C(=O)c1ccc(Br)c(Cl)c1` (single isomer, unassigned) [Compound 51a], the EC50 was 50 to 500 nM.

Take `CC1Cn2c(c(C(=O)NCc3ccccc3-c3ccncn3)n(-c3ccc(N4CCO[C@H](C(F)(F)F)C4)cc3)c2=O)CN1C(=O)c1ccc(Br)c(C(F)(F)F)c1` (mixture of isomers) [Compound 52b, rac-(6R)-7-[4-bromo-3-(trifluoromethyl)benzoyl]-6-methyl-3-oxo-N-[(2-pyrimidin-4-ylphenyl)methyl]-2-[4-[(2S)-2-(trifluoromethyl)morpholin-4-yl]phenyl]-6,8-dihydro-5H-imidazo[1,5-a]pyrazine-1-carboxamide]: the EC50 was under 50 nM.

For `C[C@H]1Cn2c(c(C(=O)NCc3ccccc3-c3ncccn3)n(-c3ccc4c(cnn4C[C@@H](O)C(F)(F)F)c3)c2=O)CN1C(=O)c1ccc(Br)c(C(F)(F)F)c1` (mixture of isomers) [Compound 101b, (6SR)-7-[4-bromo-3-(trifluoromethyl)benzoyl]-6-methyl-3-oxo-N-[(2-pyrimidin-2-ylphenyl)methyl]-2-[1-[(2R)-3,3,3-trifluoro-2-hydroxy-propyl]indazol-5-yl]-6,8-dihydro-5H-imidazo[1,5-a]pyrazine-1-carboxamide], the EC50 was under 50 nM. On the same count and under the same terms, then `CC1Cn2c(c(C(=O)NCc3ccccc3-c3nccc(N)n3)n(-c3ccc(OC4CC4)cc3)c2=O)CN1C(=O)c1ccc(Br)c(C(F)(F)F)c1` (single isomer, unassigned) [Compound 29a], with under 50 nM. On the same count and under the same terms, for `CC1Cn2c(c(C(=O)NCc3ccccc3-c3cccc(N)n3)n(-c3ccc(OC4CC4)cc3)c2=O)CN1C(=O)c1ccc(Br)c(Cl)c1` (single isomer, unassigned) [Compound 23a] the value was 50 to 500 nM.

For `CC1Cn2c(c(C(=O)NCc3ccccc3-c3ncccn3)n(-c3ccc4c(cnn4C4CNC4)c3)c2=O)CN1C(=O)c1ccc(Br)c(C(F)(F)F)c1` (single isomer, unassigned) [Compound 109a], the EC50 fell in the range of 500 to 5000 nM. The same measure, in the same setting: then `CC1Cn2c(c(C(=O)NCc3ccccc3-c3ccn(C)n3)n(-c3ccc(OC4CC4)cc3)c2=O)CN1C(=O)c1ccc(Br)c(Cl)c1` (single isomer, unassigned) [Compound 22a], with 50 to 500 nM; and `C[C@@H]1Cn2c(c(C(=O)NCc3ccccc3-c3ncccn3)n(-c3ccc4nn(C[C@H](O)C(F)(F)F)cc4c3)c2=O)CN1C(=O)c1ccc(Br)c(C(F)(F)F)c1` (mixture of isomers) [Compound 107a, (6RS)-7-[4-bromo-3-(trifluoromethyl)benzoyl]-6-methyl-3-oxo-N-[(2-pyrimidin-2-ylphenyl)methyl]-2-[2-[(2S)-3,3,3-trifluoro-2-hydroxy-propyl]indazol-5-yl]-6,8-dihydro-5H-imidazo[1,5-a]pyrazine-1-carboxamide], with 50 to 500 nM.
